Measurements reported in ChEMBL document CHEMBL1153975, “Structure-activity relationships of diverse annonaceous acetogenins against human tumor cells” (Bioorg Med Chem Lett, 2009).

Columns and labels:
Assay type in all cases: functional, cell-based
[1] = Cytotoxicity against human SMMC-7541 cells after 72 hrs by MTT assay
[2] = test system: HeLa; assay: Cytotoxicity against human HeLa cells after 72 hrs by MTT assay
[3] = test system: MCF7; assay: Cytotoxicity against human MCF7 cells after 72 hrs by MTT assay; settings: MCF7, 72 h
[4] = Cytotoxicity against human A-5408 cells after 72 hrs by MTT assay
[5] = test system: SGC-7901; assay: Cytotoxicity against human SGC7901 cells after 72 hrs by MTT assay; settings: SGC-7901, 72 h

## CCCCCC[C@@H](O)CCC[C@H](O)[C@@H]1CC[C@@H]([C@H](O)CC[C@@H](O)[C@@H]2CC[C@H](CCCCCCCCCC3=C[C@@H](C)OC3=O)O2)O1
[1]
  IC50: 60 nM
[2]
  IC50: 1.3 nM
[3]
  IC50: 3.3 nM
[4]
  IC50: 16 nM
[5]
  IC50: 93 nM

## CCCCCC[C@H](O)CCC[C@H](O)[C@H]1CC[C@H]([C@H]2CC[C@H]([C@H](O)CCCCCCCCCCCCC3=C[C@H](C)OC3=O)O2)O1 [SQUAMOCIN]
[1]
  IC50: 0.09 nM
[2]
  IC50: 9.7 nM
[3]
  IC50: 0.5 nM
[4]
  IC50: 0.87 nM
[5]
  IC50: 0.73 nM

## COc1cccc2c1C(=O)c1c(O)c3c(c(O)c1C2=O)C[C@@](O)(C(=O)CO)C[C@@H]3O[C@H]1C[C@H](N)[C@H](O)[C@H](C)O1 [DOXORUBICIN]
[1]
  IC50: 3.7 nM
[2]
  IC50: 16 nM
[4]
  IC50: 26 nM
[5]
  IC50: 13 nM

## CCCCCCCCCCC(O)C1CCC(C2CCC(C(O)CCCCCCCC[C@H](O)CC3=C[C@@H](C)OC3=O)O2)O1 (some centres undefined) [ASIMICIN]
[1]
  IC50: 11 nM
[2]
  IC50: 27 nM
[3]
  IC50: 13 nM
[4]
  IC50: 3.6 nM
[5]
  IC50: 4.3 nM

## CCCCCCCCCC[C@@H](O)[C@H]1CC[C@H]([C@H]2CC[C@H]([C@H](O)CCCCCCCCCCCCC3=C[C@@H](C)OC3=O)O2)O1 [DEACETYLUVARICIN]
[1]
  IC50: 140 nM
[2]
  IC50: 160 nM
[3]
  IC50: 40 nM
[4]
  IC50: 400 nM
[5]
  IC50: 43 nM

## CCCCCCCCCC[C@@H](O)[C@@H]1CC[C@@H]([C@H](O)CC[C@@H](O)[C@@H]2CC[C@@H](CCCCCCCCCC3=C[C@@H](C)OC3=O)O2)O1 [Squamostatin-E]
[1]
  IC50: 180 nM
[2]
  IC50: 270 nM
[3]
  IC50: 900 nM
[4]
  IC50: 130 nM
[5]
  IC50: 210 nM

## CCCCCC[C@@H](O)CCC[C@@H](O)[C@H]1CC[C@H]([C@H]2CC[C@H]([C@H](O)CCCCCCCCCCCCC3=C[C@@H](C)OC3=O)O2)O1 [Squamocin-D]
[1]
  IC50: 12 nM
[2]
  IC50: 24 nM
[3]
  IC50: 2.8 nM
[4]
  IC50: 1.8 nM
[5]
  IC50: 1.6 nM

## CCCCCC[C@@H](O)CCC[C@H](O)[C@@H]1CC[C@@H]([C@H](O)CC[C@@H](O)[C@@H]2CC[C@@H](CCCCCCCCCC3=C[C@@H](C)OC3=O)O2)O1 [Squamostatin-A]
[1]
  IC50: 50 nM
[2]
  IC50: 33 nM
[3]
  IC50: 970 nM
[4]
  IC50: 2.6 nM
[5]
  IC50: 97 nM

## CCCCCC[C@@H](O)CCC[C@@H](O)[C@@H]1CC[C@@H]([C@H](O)CC[C@@H](O)[C@@H]2CC[C@@H](CCCCCCCCCC3=C[C@@H](C)OC3=O)O2)O1 [Squamostatin-B]
[1]
  IC50: 170 nM
[2]
  IC50: 380 nM
[3]
  IC50: 730 nM
[4]
  IC50: 43 nM
[5]
  IC50: 170 nM

## CCCCCCCCCC[C@H](O)[C@H]1CC[C@H]([C@H]2CC[C@H]([C@H](O)CCCCCCCCCCCCC3=C[C@@H](C)OC3=O)O2)O1 [ISODESACETYLUVARICIN]
[1]
  IC50: 16 nM
[2]
  IC50: 13 nM
[3]
  IC50: 21 nM
[4]
  IC50: 160 nM
[5]
  IC50: 84 nM

## CCCCCCCCCC[C@H](O)[C@@H]1CC[C@@H]([C@H](O)CC[C@@H](O)[C@@H]2CC[C@@H](CCCCCCCCCC3=C[C@@H](C)OC3=O)O2)O1 [Squamostatin-D]
[1]
  IC50: 54 nM
[2]
  IC50: 38 nM
[3]
  IC50: 45 nM
[4]
  IC50: 1.4 nM
[5]
  IC50: 180 nM

## CCCCCCCCCCCC[C@@H](O)[C@H]1CC[C@H]([C@H](O)CCCCCC(O)CCCCCCC2=C[C@H](C)OC2=O)O1 (some centres undefined)
[1]
  IC50: 8.3 nM
[2]
  IC50: 1000 nM
[3]
  IC50: 37 nM
[4]
  IC50: 320 nM
[5]
  IC50: 230 nM
